Measurements taken from patent publication US11352350B2, “IRAK degraders and uses thereof” (Kymera Therapeutics, Inc., priority 2018, dated 2022).
Read-outs that look alike come from different tables or passages of the source.

Experiments:
[1] = test system: OCI-LY10; assay: CTG Cell Viability Assay - OCI-LY10; type: cell-based, human
How it was run: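 OCI-LY10 cells exposed to 9-dose, 1:3 dilutions from 10 μM top (0.2% DMSO) for 4 days at 37° C, 5% CO2. Viability by CellTiter-Glo luminescence; IC50 from three-parameter logistic fit.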

[2] = test system: U2932; assay: U2932 viability, CTG; type: cell-based; settings: Homo sapiens, U2932
[3] = test system: SU-DHL6; assay: SU-DHL6 viability, CTG; type: cell-based; settings: Homo sapiens, SU-DHL-6

Row | SMILES | cytotoxicity in OCI-LY10 lymphoma line ([1]; FIG. 5) | IC50 ([1]; Homo sapiens, OCI-Ly10, 96 h, OCI-LY10, 4 days, read-out: CTG Cell Viability Assay - OCI-LY10: Average external-IC50) | IC50 ([2]; MYD88 WT Lines, read-out: U2932 Viability, CTG IC50) | IC50 ([2]; MYD88 WT, read-out: U2932 CTG IC50) | IC50 ([3]; MYD88 WT Lines, read-out: SU-DHL6 Viability, CTG IC50) | IC50 ([3]; MYD88 WT, read-out: SU-DHL6 CTG IC50)
1 | CN(CCCOCCCc1cccc2c1n(C)c(=O)n2C1CCC(=O)NC1=O)C[C@H]1CC[C@H](n2cc(NC(=O)c3coc(-c4ccnc(NCC5CC5)c4)n3)c(C(F)F)n2)CC1 (mixture of isomers) [I-30, 2-[2-(Cyclopropylmethylamino)-4-pyridyl]-N-[3-(difluoromethyl)-1-[4-[[3-[3-[1-(2,6-dioxo-3-piperidyl)-3-methyl-2-oxo-benzimidazol-4-yl]propoxy]propyl-methyl-amino]methyl]cyclohexyl]pyrazol-4-yl] oxazole-4-carboxamide] | cytotoxic | 100 to 500 nM |  |  |  | 
2 | CN(C[C@H]1CC[C@H](n2cc(NC(=O)c3coc(-c4ccnc(NCC5CC5)c4)n3)c(C(F)F)n2)CC1)C1CCN(Cc2cccc3c2n(C)c(=O)n3C2CCC(=O)NC2=O)CC1 (stereo partly drawn) [I-75, 2-(2-((cyclopropylmethyl)amino)pyridin-4-yl)-N-(3-(difluoromethyl)-1-((1r,4r)-4-(((1-((1-(2,6-dioxopiperidin-3-yl)-3-methyl-2-oxo-2,3-dihydro-1H-benzo[d]imidazol-4-yl)methyl)piperidin-4-yl)(methyl)amino)methyl)cyclohexyl)-1H-pyrazol-4-yl)oxazole-4-carboxamide] |  |  | 374 nM | 374 nM | 1600 nM | 1600 nM
